PubChem BioAssay AID1845203 (Molecular Pharmacology Branch, DTP, NCI, 2023)

System: G-401 tumor spheroids, viability % test/control
Test: Anticancer human tumor G-401 cell line growth inhibition;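 also: spheroids exposed to compound for 7 days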;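 as to viability, T/C: 100% = DMSO vehicle-treated spheroids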
Details: spheroids with HUVEC and MSC; for IC50: curve of first compound; for viability, T/C: stronger effect = lower value; active = viability on the fitted dose curve at most 10% of control; inactive = the rest
From the text: Multicellular complex tumor spheroid response to DNA repair inhibitors in combination with DNA-damaging drugs
This study explores the anticancer activities of DNA-damaging drugs and inhibitors of DNA damage repair, both as single agents and in combinations. Complex tumor spheroids comprised of malignant cells, endothelial cells and mesenchymal stem cells served as an in vitro model for human solid tumors. This model system incorporates physiologically relevant features and patient-derived or established malignant cell lines with clinically relevant genetic alterations from many tumor types. Twenty-six patient-derived or established malignant cell lines were evaluated representing sarcoma, melanoma, small cell lung cancer (SCLC), non-small cell lung cancer (NSCLC), as well as bladder, ovarian and pancreatic cancers. The concentration ranges selected for each drug and investigational agent were based upon clinically achievable concentrations if the clinical Cmax of the agent was known.
Compounds. The drugs and compounds olaparib (NSC753686), talazoparib (NSC767125), berzosertib (NSC777718), elimusertib (NSC800525), nedisertib (NSC802822), VX-984 (NSC792969), AZD-1390 (NSC803789), temozolomide (NSC362856), topotecan (NSC609699), trabectedin (NSC813783), staurosporine (NSC755774), and gemcitabine (NSC613327) were obtained from the National Cancer Institute (NCI) Developmental Therapeutics Program Chemical Repository. The FDA-approved anticancer drug set is available from the Developmental Therapeutics Program at https://dtp.cancer.gov/organization/dscb/obtaining/available_plates.htm. […] The stock solutions were prepared in dimethyl sulfoxide (DMSO, Sigma-Aldrich, St. Louis, MO, cat. D2650) at 400-fold the tested concentration and stored at -70 degrees C. Prior to their use, the stock solutions were diluted in fresh medium and the final DMSO concentration in the assay was 0.25% (v/v). All drugs and investigational agents were tested over a range starting from a high concentration at or near the clinical Cmax and decreasing in half-log increments. If the clinical Cmax for an agent had not been determined, the highest concentration tested was 10 microM.
Cell Lines. The patient-derived cancer cell (PDC) lines: 156681-154-R-J1-PDC, 283228-195-R-J1-PDC, 287954-098-R-J1-PDC, 292921-168-R-J2-PDC, 349418-098-R-PDC, 425362-245-T-J1-PDC, 556581-035-R-J1-PDC, and BL0293-F563-PDC were received from the NCI Patient-Derived Models Repository (PDMR, https://pdmr.cancer.gov). The established cell lines HS-SY-2 (RRID:CVCL_8719), MPNST, and SYO-1 (RRID:CVCL_7146) were obtained from the Sloan Kettering Institute. The alveolar soft parts sarcoma cell line ASPS-1 (RRID:CVCL_S738) was established at the NCI and grown from internal seed stocks. The following established cell lines were purchased from the American Type Culture Collection (ATCC, Manassas, VA): G-401 (ATCC, cat. CRL-1441, RRID:CVCL_0270), SW982 (ATCC, cat. HTB-93, RRID:CVCL_1734), VA-ES-BJ (ATCC, cat. CRL-2138, RRID:CVCL_1785), NCI-H719 (ATCC, cat. CRL-5837, RRID:CVCL_1582), NCI-H196 (ATCC, cat. CRL-5823, RRID:CVCL_1509), NCI-H841 (ATCC, cat. CRL-5845, RRID:CVCL_1595), NCI-H1618 (ATCC, cat. CRL-5879, RRID:CVCL_1480), NCI-H1876 (ATCC, cat. CRL-5902, RRID:CVCL_1503), DMS 114 (ATCC, cat. CRL-2066; RRID:CVCL_1174), NCI-H211 (ATCC, cat. CRL-5824; RRID:CVCL_1529), and SW 1271 (ATCC, cat. CRL-2177, RRID:CVCL_1716). The small cell lung cancer cell line COR-L88 was purchased from Sigma-Aldrich (cat. 92031917-1VL, RRID:CVCL_1141). The non-small cell lung cancer cell lines NCI-H226 (RRID:CVCL_1544) and NCI-H322M (RRID:CVCL_1557) were established at the NCI and grown from internal seed stocks. Pooled donor human umbilical vein endothelial cells (HUVEC, Lonza, cat. CC-2519) and human mesenchymal stem cells (hMSC, Lonza, cat. PT-2501) were purchased from Lonza (Walkersville, MD).
Cell Culture. All cells were maintained in an incubator at 37 degrees C and 5% CO2 with 95% humidity. […]

Cn1ncnc1[C@H]1c2n[nH]c(=O)c3cc(F)cc(c23)N[C@@H]1c1ccc(F)cc1 + COc1cc2c(cc1O)CCNC21CSC2c3c(OC(C)=O)c(C)c4c(c3C(COC1=O)N1C(O)C3Cc5cc(C)c(OC)c(O)c5C(C21)N3C)OCO4
inactive: viability, T/C (second compound 30 pM, first compound 0.00949 µM) 70.6% | viability, T/C (second compound 30 pM, first compound 0.03 µM) 62% | viability, T/C (second compound 30 pM, first compound 0.0949 µM) 46% | viability, T/C (second compound 30 pM, first compound 0.3 µM) 30.6% | viability, T/C (second compound 30 pM, first compound 0.949 µM) 19.6% | viability, T/C (second compound 30 pM, first compound 3 µM) 10.8% | viability, T/C (second compound 94.9 pM, first compound 0.00949 µM) 48.4% | viability, T/C (second compound 94.9 pM, first compound 0.03 µM) 47.3% | viability, T/C (second compound 94.9 pM, first compound 0.0949 µM) 34.1% | viability, T/C (second compound 94.9 pM, first compound 0.3 µM) 26.2% | viability, T/C (second compound 94.9 pM, first compound 0.949 µM) 17.9% | viability, T/C (second compound 94.9 pM, first compound 3 µM) 9.94% | viability, T/C (second compound 0.0003 µM, first compound 0.00949 µM) 25.6% | viability, T/C (second compound 0.0003 µM, first compound 0.03 µM) 26.4% | viability, T/C (second compound 0.0003 µM, first compound 0.0949 µM) 21.5% | viability, T/C (second compound 0.0003 µM, first compound 0.3 µM) 19.1% | viability, T/C (second compound 0.0003 µM, first compound 0.949 µM) 11.2%
72.5 nM: IC50 (second compound 30 pM)
< 9.49 nM: IC50 (second compound 94.9 pM) | IC50 (second compound 0.0003 µM) | IC50 (second compound 0.000949 µM) | IC50 (second compound 0.003 µM)
active: viability, T/C (second compound 0.0003 µM, first compound 3 µM) 7.83% | viability, T/C (second compound 0.000949 µM, first compound 0.00949 µM) 6.63% | viability, T/C (second compound 0.000949 µM, first compound 0.03 µM) 5.61% | viability, T/C (second compound 0.000949 µM, first compound 0.0949 µM) 5.35% | viability, T/C (second compound 0.000949 µM, first compound 0.3 µM) 5.74% | viability, T/C (second compound 0.000949 µM, first compound 0.949 µM) 2.94% | viability, T/C (second compound 0.000949 µM, first compound 3 µM) 0.23% | viability, T/C (second compound 0.003 µM, first compound 0.00949 µM) 0.15% | viability, T/C (second compound 0.003 µM, first compound 0.03 µM) 0.13% | viability, T/C (second compound 0.003 µM, first compound 0.0949 µM) 0.13% | viability, T/C (second compound 0.003 µM, first compound 0.3 µM) 0.15% | viability, T/C (second compound 0.003 µM, first compound 0.949 µM) 0.14% | viability, T/C (second compound 0.003 µM, first compound 3 µM) 0.21%

CC(C)n1c(=O)n(C)c2cnc3cc(F)c(-c4ccc(OCCCN5CCCCC5)nc4)cc3c21 + COc1cc2c(cc1O)CCNC21CSC2c3c(OC(C)=O)c(C)c4c(c3C(COC1=O)N1C(O)C3Cc5cc(C)c(OC)c(O)c5C(C21)N3C)OCO4
inactive: viability, T/C (second compound 30 pM, first compound 0.0316 µM) 43.6% | viability, T/C (second compound 30 pM, first compound 0.1 µM) 35.7% | viability, T/C (second compound 30 pM, first compound 0.316 µM) 35% | viability, T/C (second compound 30 pM, first compound 1 µM) 46.2% | viability, T/C (second compound 30 pM, first compound 3.16 µM) 36.9% | viability, T/C (second compound 30 pM, first compound 10 µM) 19% | viability, T/C (second compound 94.9 pM, first compound 0.0316 µM) 19.1% | viability, T/C (second compound 94.9 pM, first compound 0.1 µM) 17.3% | viability, T/C (second compound 94.9 pM, first compound 0.316 µM) 18.1% | viability, T/C (second compound 94.9 pM, first compound 1 µM) 21.6% | viability, T/C (second compound 94.9 pM, first compound 3.16 µM) 23.9% | viability, T/C (second compound 94.9 pM, first compound 10 µM) 23% | viability, T/C (second compound 0.0003 µM, first compound 0.0316 µM) 15.6% | viability, T/C (second compound 0.0003 µM, first compound 0.1 µM) 12.8% | viability, T/C (second compound 0.0003 µM, first compound 0.316 µM) 16.4% | viability, T/C (second compound 0.0003 µM, first compound 1 µM) 19.7% | viability, T/C (second compound 0.0003 µM, first compound 3.16 µM) 18.4% | viability, T/C (second compound 0.0003 µM, first compound 10 µM) 17.9%
< 31.6 nM: IC50 (second compound 30 pM) | IC50 (second compound 94.9 pM) | IC50 (second compound 0.0003 µM) | IC50 (second compound 0.000949 µM) | IC50 (second compound 0.003 µM)
active: viability, T/C (second compound 0.000949 µM, first compound 0.0316 µM) 7.44% | viability, T/C (second compound 0.000949 µM, first compound 0.1 µM) 7.47% | viability, T/C (second compound 0.000949 µM, first compound 0.316 µM) 7.71% | viability, T/C (second compound 0.000949 µM, first compound 1 µM) 11.5% | viability, T/C (second compound 0.000949 µM, first compound 3.16 µM) 12.2% | viability, T/C (second compound 0.000949 µM, first compound 10 µM) 10.6% | viability, T/C (second compound 0.003 µM, first compound 0.0316 µM) 0.13% | viability, T/C (second compound 0.003 µM, first compound 0.1 µM) 0.16% | viability, T/C (second compound 0.003 µM, first compound 0.316 µM) 0.15% | viability, T/C (second compound 0.003 µM, first compound 1 µM) 0.36% | viability, T/C (second compound 0.003 µM, first compound 3.16 µM) 0.4% | viability, T/C (second compound 0.003 µM, first compound 10 µM) 0.44%
